Test results as given in patent US9388133B2, “Pyrrole sulfonamide derivative, preparation method for same, and medical application thereof” (Jiangsu Hansoh Pharmaceutical Co., Ltd., priority 2012, dated 2016).

Experiments:
[1] = test system: gastric acid secretion of rats with pyloric ligation induced ulcer; test: Inhibition of gastric acid secretion of rats with pyloric ligation induced ulcer, histamine-stimulated, 24 h after administration (Test Example 3); assay type: in vivo, rat; details: SD male rats, acid output within 3 h of histamine
Description: A rat gastric ulcer model, in which rat gastric acid secretion was promoted by pyloric ligation and histamine hydrochloride, was established in the following experiment, for evaluating the effect of the test compounds on inhibition of the gastric acid secretion.
(§1) Twenty-four (24) 7-week-old SD male rats with a weight of about 250 g were purchased form Sippr-BK (batch number: 2008001621913). The rats were fed by 4 rats/cage, 12/12 h light/dark cyclic regulation was performed, the temperature was constant at 23±1° C., the humidity was 50-60%, and the rats took food and water freely.
The compound of Example 1 was prepared into a solution/suspension with 0.5% of CMC-Na.
(§2) The rats were fasted for about 24 h. 4 mg/kg and 8 mg/kg of the compound of Example 1 or 0.5% of CMC-Na were administrated intragastrically (i. g) to the rats, and then 1.2 g/kg of urethane was injected intraperitoneally within 24 h. […] After centrifugalizing at 4000 rpm for 10 min, the supernatant fluid was sucked up, and the volume of each sample was measured accurately. […]
(§3) Gastric acid titration: the mean value (mean±S.D.) was calculated in each group by Excel software, t test was performed on the total acid value of gastric acid from treatment groups and model group subjects/animals at each time point after drug administration to judge whether a significant difference existed or not. […]

H^+/K^+-ATPase = target: T1, H^+/K^+-ATPase (Sus scrofa, UniProt P19156); test: H+/K+-ATPase enzyme activity inhibition (malachite green, microsomes of porcine gastric mucosa); assay type: biochemical; details: pH 6.5, 10 mmol/L KCl, 37° C. 30 min
T1 construct: Microsomes of porcine gastric mucosal (rich in H^+/K^+-ATPase) obtained by sucrose gradient centrifugation; from tissue; host or cells: porcine gastric mucosa microsomes (self-manufactured, sucrose/ficoll gradient centrifugation)
T1 sequence (P19156 2-1034 limits assumed): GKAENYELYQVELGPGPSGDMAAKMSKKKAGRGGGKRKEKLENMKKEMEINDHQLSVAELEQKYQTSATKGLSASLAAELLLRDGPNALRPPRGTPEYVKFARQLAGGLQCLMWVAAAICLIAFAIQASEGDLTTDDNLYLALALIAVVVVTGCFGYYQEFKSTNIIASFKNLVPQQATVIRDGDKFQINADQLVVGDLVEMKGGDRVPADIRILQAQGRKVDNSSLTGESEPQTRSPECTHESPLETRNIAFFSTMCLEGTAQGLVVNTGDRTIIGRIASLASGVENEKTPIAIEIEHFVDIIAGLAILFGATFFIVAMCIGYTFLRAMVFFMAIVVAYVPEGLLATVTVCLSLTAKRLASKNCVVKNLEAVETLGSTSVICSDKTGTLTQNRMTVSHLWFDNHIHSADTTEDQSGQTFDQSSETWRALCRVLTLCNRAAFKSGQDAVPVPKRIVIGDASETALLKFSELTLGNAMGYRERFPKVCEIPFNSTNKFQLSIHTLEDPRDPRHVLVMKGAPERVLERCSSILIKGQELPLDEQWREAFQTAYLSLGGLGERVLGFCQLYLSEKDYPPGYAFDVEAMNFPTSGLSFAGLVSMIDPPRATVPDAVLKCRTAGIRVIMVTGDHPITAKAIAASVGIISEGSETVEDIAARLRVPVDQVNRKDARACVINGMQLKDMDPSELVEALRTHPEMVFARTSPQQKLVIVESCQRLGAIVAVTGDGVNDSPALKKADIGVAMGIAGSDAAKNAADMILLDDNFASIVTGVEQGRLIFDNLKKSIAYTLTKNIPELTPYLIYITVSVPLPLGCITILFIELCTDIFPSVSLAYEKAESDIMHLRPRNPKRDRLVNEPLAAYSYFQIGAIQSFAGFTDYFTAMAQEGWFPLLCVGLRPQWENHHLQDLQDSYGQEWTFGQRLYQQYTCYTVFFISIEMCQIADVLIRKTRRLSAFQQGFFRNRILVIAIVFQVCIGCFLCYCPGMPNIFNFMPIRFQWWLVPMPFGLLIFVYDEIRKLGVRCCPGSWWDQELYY
T1 sequence (P18434 whole entry partner): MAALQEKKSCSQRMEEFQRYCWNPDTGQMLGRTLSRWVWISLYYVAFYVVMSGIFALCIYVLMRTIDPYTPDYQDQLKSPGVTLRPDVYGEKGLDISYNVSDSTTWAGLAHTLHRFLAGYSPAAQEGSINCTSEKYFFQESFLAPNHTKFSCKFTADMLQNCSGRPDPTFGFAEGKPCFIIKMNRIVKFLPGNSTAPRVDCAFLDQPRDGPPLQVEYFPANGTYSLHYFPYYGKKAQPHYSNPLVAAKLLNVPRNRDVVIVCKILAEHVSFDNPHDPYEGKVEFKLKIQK
Description: The following in-vitro screening test was used for determining the inhibition effect of the compounds of the present invention on enzyme activity of H^+/K^+-ATPase.
1. microsomes of porcine gastric mucosa (rich in H^+/K^+-ATPase) (self-manufactured)
1. The compounds were prepared into appropriate concentrations of 10000, 1000, 100, 10, 1 and 0.1 nM with 100% DMSO;
2. Buffer solution 1: 50 mmol/L of HEPES-Tris, 5 mmol/L of magnesium chloride, pH of 6.5;
3. Buffer solution 2: 50 mmol/L of HEPES-Tris, 5 mmol/L of magnesium chloride, pH of 6.5, 10 mmol/L of potassium chloride, pH=6.5;
4. ATP: ATP was diluted with the buffer solution 1 to 2 mM;
5. Malachite green solution: 0.12% of malachite green was dissolved in 2.5 moles of a mixture of sulfuric acid, 7.5% ammonium molybdate and 11% Tween 20, the three components were mixed according to a ratio of 100:25:2 during the use.
6. Microsomes of porcine gastric mucosal (rich in H^+/K^+-ATPase) obtained by sucrose gradient centrifugation: a porcine stomach was washed with running water, and immersed into 3 mol/L of concentrated brine for 1-2 min, and then wiped dry; the gastric mucosas were separated, minced, then suspended in a solution of 0.25 mol/L of sucrose, 1 mmol/L of EDTA, and 10 mmol/L of Tris-HCl; homogenization treatment was performed (the ratio was 100 g:330 mL, and 300 mL was further added after the completion of full homogenization), and the resulting homogenate was centrifugalized at 20000G for 30 min to remove the precipitate; the supernatant fluid was taken and centrifugalized at 100000G for 90 min; the precipitate was taken and suspended in 0.25 mol/L of sucrose solution, 0.25 mol/L of sucrose, 7.5% of ficoll were added at the bottom and centrifugalized at 100000G for 5 h. The substances between two liquid surface layers were collected, and then washed with 0.25 mol/L of sucrose solution while being shaken, and the resulting microsomal enzymes were kept at −80° C. for preservation and later use.
10 μL of microsomes of gastric mucosa (H^+/K^+-ATPase) were added to 79 μL of the buffer solution 2, followed by addition of 1 μL of the compound solutions with various concentrations, and then 10 μL of 2 mM ATP were added to start the reaction. It was reacted at 37° C. for 30 min. 30 μL of malachite green solution was added to terminate the reaction, and the reaction solution was kept at room temperature for 20 min, and then an OD value was read at 620 nm on a Victor3 microplate reader, and the inhibition rates of the compounds at various concentrations against H^+/K^+-ATPase were calculated.
Simultaneously, the reaction without addition of potassium chloride was taken as a background, which was subtracted when enzyme activity was calculated.
IC50 values can be calculated from the inhibition rates of the test compounds at various concentrations.

[2] = test system: gastric acid secretion of rats with pyloric ligation induced ulcer; test: Inhibition of gastric acid secretion of rats with pyloric ligation induced ulcer, histamine-stimulated, 1 h after administration (Test Example 2); assay type: in vivo, rat; details: SD male rats, 2 mg/kg i.g., acid output within 3 h of histamine
Description: A rat gastric ulcer model, in which rat gastric acid secretion was promoted by pyloric ligation and histamine hydrochloride, was established in the following experiment, for evaluating the effect of the test compounds on inhibition of gastric acid secretion.
as §1, with “Sixteen” for “Twenty-four (24)”, “Sprague-Dawley (SD)” for “SD”
The compound of Example 1, which was prepared into a solution/suspension with 0.5% of sodium carboxymethylcellulose (CMC-Na).
as §2, with “about 4” for “about 24”, “h. 2” for “h. 4 mg/kg and 8”, “(i. g.)” for “(i. g)”, “within 1” for “within 24”, “for 5” for “for 10”
as §3

Row | Compound | acid inhibition rate at 24 h ([1]; 4 mg/kg i.g.) [%] | acid inhibition rate at 24 h ([1]; 8 mg/kg i.g.) [%] | IC50 (H^+/K^+-ATPase) [nM] | acid inhibition rate at 1 h [2] [%]
1 | CNCc1cc(-c2ccccc2F)n(S(=O)(=O)c2cccc(OCC(=O)NC)c2)c1 [Example 1, 2-(3-((2-(2-fluorophenyl)-4-((methylamino)methyl)-1H-pyrrol-1-yl)sulfonyl)phenoxy)-N-methylacetamide] | 89.6 | 99.4 | 21 | 89.3
2 | CNCc1cc(-c2ccccc2F)n(S(=O)(=O)c2ccc(OCC(=O)NC)cc2)c1 [Example 4, 2-(4-((2-(2-fluorophenyl)-4-((methylamino)methyl)-1H-pyrrol-1-yl)sulfonyl)phenoxy)-N-methylacetamide] | – | – | 63 | –
3 | CNCc1cc(-c2ccccc2F)n(S(=O)(=O)c2cccc(OCC3(C(=O)NC)CC3)c2)c1 [Example 5, 1-((3-((2-(2-fluorophenyl)-4-((methylamino)methyl)-1H-pyrrol-1-yl)sulfonyl)phenoxy)methyl)-N-methylcyclopropylcarboxamide] | – | – | 81 | –
4 | CNCc1cc(-c2ccccc2F)n(S(=O)(=O)c2ccc(OCC3(C(=O)NC)CC3)cc2)c1 [Example 6, 1-((4-((2-(2-fluorophenyl)-4-((methylamino)methyl)-1H-pyrrol-1-yl)sulfonyl)phenoxy)methyl)-N-methylcyclopropylcarboxamide] | – | – | 106 | –
5 | CNCc1cc(C2=CCCCC2)n(S(=O)(=O)c2cccc(OCC(=O)NC3CC3)c2)c1 [Example 7, 2-(3-((2-(cyclohex-1-en-1-yl)-4-((methylamino)methyl)-1H-pyrrol-1-yl)sulfonyl)phenoxy)-N-cyclopropylacetamide] | – | – | 95 | –
6 | CNCc1cc(-c2ccccc2F)n(S(=O)(=O)c2cccc(OCC(=O)NCCO)c2)c1 [Example 10, 2-(3-((2-(2-fluorophenyl)-4-((methylamino)methyl)-1H-pyrrol-1-yl)sulfonyl)phenoxy)-N-(2-hydroxyethyl)acetamide] | – | – | 49 | –
7 | CNCc1cc(-c2ccccc2F)n(S(=O)(=O)c2cccc(OCC(=O)NCCCO)c2)c1 [Example 11] | – | – | 61 | –
